Test results from US7273865B2, “Thiazolopyridine” (Hoffmann-La Roche Inc., priority 2003, dated 2007).

What was measured:
[1] = target: T1, human adenosine A1 receptor (Homo sapiens, UniProt P30542); test: Human adenosine A1 receptor [3H]-DPCPX binding assay; conditions: recombinant receptor expressed in CHO cells, [3H]-DPCPX 0.6 nM, SPA; read-out: hA1 (converted)
T1 construct: expressed in transfected cells; host or cells: CHO cells, semliki forest virus expression system; membranes used
T1 sequence (P30542 1-326): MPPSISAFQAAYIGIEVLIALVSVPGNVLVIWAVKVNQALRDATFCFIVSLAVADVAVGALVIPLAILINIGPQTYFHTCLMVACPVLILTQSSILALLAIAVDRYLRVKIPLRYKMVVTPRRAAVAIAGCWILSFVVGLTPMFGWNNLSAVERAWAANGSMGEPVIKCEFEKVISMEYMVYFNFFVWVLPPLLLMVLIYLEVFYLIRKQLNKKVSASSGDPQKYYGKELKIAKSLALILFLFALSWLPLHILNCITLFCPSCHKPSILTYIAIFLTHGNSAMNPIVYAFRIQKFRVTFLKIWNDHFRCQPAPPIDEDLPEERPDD
Protocol: (§1) The human adenosine A1 receptor was recombinantly expressed in Chinese hamster ovary (CHO) cells using the semliki forest virus expression system. Cells were harvested, washed twice by centrifugation, homogenized and again washed by centrifugation. The [^3H]-DPCPX (([propyl-3H]8-cyclopentyl-1,3-dipropyxanthine); 0.6 nM) binding assay was carried out in 96-well plates in the presence of (per well) approximately 2.5 μg of membrane protein, 0.5 mg of Ysi-poly-1-lysine SPA beads and 0.1 U adenosine deaminase in a final volume of 200 μl of buffer (containing 50 mM Tris, 120 mM NaCl, 5 mM KCl, 2 mM CaCl2 and 10 mM MgCl2 (pH 7.4)). Non-specific binding was defined using xanthine amine congener (XAC; 2 μM). Compounds were tested at 10 concentrations from 10 μM-0.3 nM. All assays were conducted in duplicate and repeated at least two times. Assay plates were incubated for 1 hour at room temperature before centrifugation and then bound ligand determined using a Packard Topcount scintillation counter. IC50 values were calculated using a non-linear curve fitting program and Ki values calculated using the Cheng-Prussoff equation.

[2] = target: T2, human adenosine A2A receptor (Homo sapiens, UniProt P29274); test: Human adenosine A2A receptor [3H]-SCH-58261 binding assay; conditions: for Selectivity: hA2A versus hA1; for Ki: recombinant receptor expressed in CHO cells, [3H]-SCH-58261 1 nM, SPA, read-out: hA2A (converted)
T2 construct: expressed in transfected cells; host or cells: CHO cells, semliki forest virus expression system; membranes used
Protocol: as §1, with “A2A” for “A1”, “[^3H]-SCH-58261 (Dionisotti et al., 1997, Br J Pharmacol 121, 353; 1” for “[^3H]-DPCPX (([propyl-3H]8-cyclopentyl-1,3-dipropyxanthine); 0.6”

T2 sequence (P29274 whole entry): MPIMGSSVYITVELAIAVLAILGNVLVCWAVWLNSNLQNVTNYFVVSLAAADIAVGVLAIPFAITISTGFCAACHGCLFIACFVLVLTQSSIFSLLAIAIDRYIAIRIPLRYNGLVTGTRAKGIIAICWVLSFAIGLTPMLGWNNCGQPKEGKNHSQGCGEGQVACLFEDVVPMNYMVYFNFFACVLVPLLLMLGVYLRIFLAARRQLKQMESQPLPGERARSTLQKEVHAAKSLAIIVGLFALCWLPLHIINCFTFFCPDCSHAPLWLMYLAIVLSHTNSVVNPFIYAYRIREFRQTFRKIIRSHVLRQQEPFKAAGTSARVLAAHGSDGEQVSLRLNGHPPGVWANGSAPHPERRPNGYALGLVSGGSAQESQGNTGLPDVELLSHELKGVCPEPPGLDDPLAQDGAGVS

SMILES | Ki [1] [nM] | Selectivity [2] | Ki [2] [nM]
COc1cnc(N2CCOCC2)c2sc(NC(=O)c3ccc(F)cc3)nc12 [Example 1, 4-Fluoro-N-(7-methoxy-4-morpholin-4-yl-thiazolo[5,4-c]pyridin-2-yl)-benzamide] | 1780 | 420 | 4.17
COc1ccc(C(=O)Nc2nc3c(OC)cnc(N4CCOCC4)c3s2)cc1 [Example 3, 4-Methoxy-N-(7-methoxy-4-morpholin-4-yl-thiazolo[5,4-c]pyridin-2-yl)-benzamide] | 1910 | 384 | 5.01
COc1cnc(N2CCOCC2)c2sc(NC(=O)c3ccnc(C)c3)nc12 [Example 4, N-(7-Methoxy-4-morpholin-4-yl-thiazolo[5,4-c]pyridin-2-yl)-2-methyl-isonicotinamide] | 5750 | 512 | 11.2
COc1cc(C(=O)Nc2nc3c(OC)cnc(N4CCOCC4)c3s2)ccn1 [Example 5, 2-Methoxy-N-(7-methoxy-4-morpholin-4-yl-thiazolo[5,4-c]pyridin-2-yl)-isonicotinamide] | 6310 | 489 | 12.9
COc1cnc(N2CCOCC2)c2sc(NC(=O)c3cccc(F)c3)nc12 [Example 6, 3-Fluoro-N-(7-methoxy-4-morpholin-4-yl-thiazolo[5,4-c]pyridin-2-yl)-benzamide] | 1660 | 312 | 5.37
COc1cccc(C(=O)Nc2nc3c(OC)cnc(N4CCOCC4)c3s2)c1 [Example 7, 3-Methoxy-N-(7-methoxy-4-morpholin-4-yl-thiazolo[5,4-c]pyridin-2-yl)-benzamide] | 1350 | 436 | 3.09
COc1ccc(C(=O)Nc2nc3c(OC)cnc(N4CCOCC4)c3s2)cc1OC [Example 8, 3,4-Dimethoxy-N-(7-methoxy-4-morpholin-4-yl-thiazolo[5,4-c]pyridin-2-yl)-benzamide] |  | 535 | 13.8
COc1cnc(N2CCOCC2)c2sc(NC(=O)c3ccc4c(c3)OCO4)nc12 [Example 9, Benzo [1,3]dioxole-5-carboxylic acid (7-methoxy-4-morpholin-4-yl-thiazolo[5,4-c]pyridin-2-yl)-amide] | 3800 | 527 | 7.24
COc1cnc(N2CCOCC2)c2sc(NC(=O)CC3CCOCC3)nc12 [Example 11, N-(7-Methoxy-4-morpholin-4-yl-thiazolo[5,4-c]pyridin-2-yl)-2-(tetrahydro-pyran-4-yl)-acetamide] | 5010 | 310 | 16.2
COc1cnc(N2CCOCC2)c2sc(NC(=O)c3ccncc3)nc12 [Example 17, N-(7-Methoxy-4-morpholin-4-yl-thiazolo[5,4-c]pyridin-2-yl)-isonicotinamide] | 5620 | 258 | 21.9
COc1cnc(N2CCOCC2)c2sc(NC(=O)c3ccnc(N4CC(O)C4)c3)nc12 [Example 18, 2-(3-Hydroxy-azetidin-1-yl)-N-(7-methoxy-4-morpholin-4-yl-thiazolo[5,4-c]pyridin-2-yl)-isonicotinamide] |  | 868 | 7.94
COc1cnc(N2CCOCC2)c2sc(NC(=O)c3ccnc(N4CC(OC)C4)c3)nc12 [Example 19, 2-(3-Methoxy-azetidin-1-yl)-N-(7-methoxy-4-morpholin-4-yl-thiazolo[5,4-c]pyridin-2-yl)-isonicotinamide] | 1910 | 347 | 5.5
COc1ccc(C(=O)Nc2nc3c(OC)cnc(N4CCOCC4)c3s2)cn1 [Example 21, 6-Methoxy-N-(7-methoxy-4-morpholin-4-yl-thiazolo[5,4-c]pyridin-2-yl)-nicotinamide] |  | 519 | 14.1
COc1cnc(N2CCOCC2)c2sc(NC(=O)c3ccnc(N4CCOCC4)c3)nc12 [Example 22, N-(7-Methoxy-4-morpholin-4-yl-thiazolo[5,4-c]pyridin-2-yl)-2-morpholin-4-yl-isonicotinamide] | 6460 | 1647 | 3.89
COc1cnc(N2CCOCC2)c2sc(NC(=O)c3ccc(N4CCOCC4)cc3)nc12 [Example 29, N-(7-Methoxy-4-morpholin-4-yl-thiazolo[5,4-c]pyridin-2-yl)-4-morpholin-4-yl-benzamide] |  | 572 | 12.6
COc1cnc(N2CCOCC2)c2sc(NC(=O)c3cccc(N4CCOCC4)c3)nc12 [Example 30, N-(7-Methoxy-4-morpholin-4-yl-thiazolo[5,4-c]pyridin-2-yl)-3-morpholin-4-yl-benzamide] | 7080 | 1716 | 4.07
COCCN(C)Cc1ccc(C(=O)Nc2nc3c(OC)cnc(N4CCOCC4)c3s2)cc1 [Example 31, 4-{[(2-Methoxy-ethyl)-methyl-amino]-methyl}-N-(7-methoxy-4-morpholin-4-yl-thiazolo[5,4-c]pyridin-2-yl)-benzamide] | 6030 | 441 | 13.8
COc1cnc(N2CCOCC2)c2sc(NC(=O)c3ccnc(CN4CCOCC4)c3)nc12 [Example 33, N-(7-Methoxy-4-morpholin-4-yl-thiazolo[5,4-c]pyridin-2-yl)-2-morpholin-4-ylmethyl-isonicotinamide] |  | 291 | 25.1
COc1cnc(N2CCOCC2)c2sc(NC(=O)N3CCC(CO)CC3)nc12 [Example 36, 4-Hydroxymethyl-piperidine-1-carboxylic acid (7-methoxy-4-morpholin-4-yl-thiazolo[5,4-c]pyridin-2-yl)-amide] | 3160 | 468 | 6.76
COc1cnc(N2CCOCC2)c2sc(NC(=O)N3CCC4(CCN(C)C4=O)CC3)nc12 [Example 37, 2-Methyl-1-oxo-2,8-diaza-spiro [4.5] decane-8-carboxylic acid (7-methoxy-4-morpholin-4-yl-thiazolo[5,4-c]pyridin-2-yl)-amide] |  | 346 | 20.9
COc1cnc(N2CCOCC2)c2sc(NC(=O)c3ccc(CN4CCOCC4)cc3)nc12 [Example 39, N-(7-Methoxy-4-morpholin-4-yl-thiazolo[5,4-c]pyridin-2-yl)-4-morpholin-4-ylmethyl-benzamide] |  | 446 | 16.2
COc1cnc(N2CCOCC2)c2sc(NC(=O)N3CCC4(CCCO4)CC3)nc12 [Example 40, 1-Oxa-8-aza-spiro[4.5]decane-8-carboxylic acid (7-methoxy-4-morpholin-4-yl-thiazolo[5,4-c]pyridin-2-yl)-amide] | 5890 | 387 | 15.5
COc1cnc(N2CCOCC2)c2sc(NC(=O)N3CCC(C)(CO)CC3)nc12 [Example 43, 4-Hydroxymethyl-4-methyl-piperidine-1-carboxylic acid (7-methoxy-4-morpholin-4-yl-thiazolo[5,4-c]pyridin-2-yl)-amide] | 7080 | 593 | 11.7
